From patent US20100196325A1 (priority 2007, published 2010)
“Also recorded” adds a separate entry of the source. Read-outs that look alike come from different tables or passages of the source.

What was measured:
[1] = test system: modified vaccinia virus, such as GLV-1h68; design: species or system patient; details: human, in vivo
[2] = test system: recombinant vaccinia virus GLV-1h68; type: cell-based
[3] = human, in vivo; for Side effects from the virus: iv
tumor = test system: tumor; design: species or system patient; details: human, in vivo
[4] = test system: recombinant vaccinia virus GLV-1h68; type: cell-based; remark: listed apart in the source
[5] = test system: A549 lung carcinoma cells; design: species or system nude mice; details: mouse, in vivo
[6] = test system: recombinant vaccinia virus GLV-1h68; type: cell-based; remark: listed apart in the source
[7] = test system: PANC-1 human pancreatic carcinoma cells; design: species or system nude mice; details: mouse, in vivo
[8] = test system: GI-101A human breast carcinoma cells; design: species or system nude mice; details: mouse, in vivo
[9] = Pock formation (systemic toxicity) after i.v. GLV-1h68 in GI-101A tumor-bearing mice; details: 80 days after virus injection; GLV-1h68 virus-treated animals given four doses of irinotecan 80 mg/kg i.p.; n=8

SMILES	Viral load in the bloodstream [1]	Viral load in the bloodstream: decrease [1]	Viral load in the bloodstream: increase [1]	Viral load in the bloodstream ([1]; iv)	Concentration at which growth of GLV-1h68 was completely inhibited [2] [µM]	Effect on GLV-1h68 growth in GI-101A cells (in words) [2]	Body weight and pock formation [3]	Patient's symptoms [3]	Virus-associated side effects [3]	Side effects from the virus [3]	Tumor growth (tumor)	Concentration at which growth of GLV-1h68 was completely inhibited [4] [µM]	Effect on GLV-1h68 growth in GI-101A cells (in words) [4]	Effect on tumor growth (in words) [5]	Concentration at which growth of GLV-1h68 was completely inhibited [6] [µM]	Tumor growth (tumor; iv)	Effect on tumor growth (in words) [7]	Effect on tumor growth (in words) [8]	Animals in which no pocks were observed on any part of the body [9]
N.N.[Cl][Pt][Cl] [Cisplatin]	is maintained or increases before subsequently decreasing	decreases more quickly; also recorded: decreases more rapidly	increased to a lesser extent	decreases over the period of time	≥ 100	started to inhibit; also recorded: significantly inhibited the virus growth	body weight of the patient is improved and any pock formation dissipates	symptoms subside	Fewer virus-associated side effects	suffers fewer side effects from the virus	tumor growth is arrested or decreases	–	–	–	–	–	–	–	–
COc1cccc2c1C(=O)c1c(O)c3c(c(O)c1C2=O)C[C@@](O)(C(=O)CO)C[C@@H]3O[C@H]1C[C@H](N)[C@H](O)[C@H](C)O1 [Doxorubicin]	is maintained or increases before subsequently decreasing	decreases more quickly; also recorded: decreases more rapidly	increased to a lesser extent	decreases over the period of time	–	–	body weight of the patient is improved and any pock formation dissipates	symptoms subside	Fewer virus-associated side effects	suffers fewer side effects from the virus	tumor growth is arrested or decreases	≥ 1	started to inhibit	–	–	–	–	–	–
Nc1ccn(C2OC(CO)C(O)C2(F)F)c(=O)n1 (centres unmarked) [Gemcitabine, 4-amino-1-[3,3-difluoro-4-hydroxy-5-(hydroxymethyl)tetrahydrofuran-2-yl]-1H-pyrimidine-2-one]	is maintained or increases before subsequently decreasing	decreases more quickly; also recorded: decreases more rapidly	increases to a lesser extent	decreases over the period of time	–	–	body weight of the patient is improved and any pock formation dissipates	symptoms subside	Fewer virus-associated side effects	suffers fewer side effects from the virus	tumor growth is arrested or decreases	–	–	did not cause any inhibition of tumor growth	≥ 1.0	tumor growth is arrested or decreases	decrease tumor growth in the mice at both 50 mg/kg and 100 mg/kg doses to some extent	–	–
CCc1c2c(nc3ccc(OC(=O)N4CCC(N5CCCCC5)CC4)cc13)-c1cc3c(c(=O)n1C2)COC(=O)[C@]3(O)CC [Irinotecan]	is maintained or increases before subsequently decreasing	decreases more quickly; also recorded: decreases more rapidly	increased to a lesser extent	decreases over the period of time	–	–	body weight of the patient is improved and any pock formation dissipates	symptoms subside	Fewer virus-associated side effects	suffers fewer side effects from the virus	tumor growth is arrested or decreases	–	–	–	–	tumor growth is arrested or decreases	–	increased tumor growth	7 out of 8
